Structures are written as SMILES.

In one assay the test system is FIMMI. Kind of assay: Example V post-emergence field trials in direct-seeded rice. The conditions noted are these: foliar, field trial Tolima, Colombia. The class given is in vivo, Fimbristylis miliacea. The method, then: (§1) Multiple field trials were conducted under commercial grower field conditions in Tolima, Colombia; Thessaloniki, Greece; Bianze and Copiano, Italy; and Humphrey, Ark., USA. Trials sites were located in commercially grown fields of direct-seeded rice (Oryza sativa) using standard herbicide small plot research methodology. Plots varied from 2 to 3 meter (m)×5 to 8 m (width×length) with 4 replicates per treatment. The rice crop was grown using normal cultural practices for fertilization, seeding, watering, flooding and maintenance to ensure good growth of the crop and the weeds.
(§2) All treatments in the field trials were applied using a backpack compressed air/gas sprayer with flat fan nozzles (80° or 110°) calibrated to apply 187 to 300 L/ha spray volume at approximately 200-400 kPa nozzle pressure. Commercially available products of cyhalofop-butyl (Clincher 180EC, Clincher 200EC, and Clincher SF (285 gr ai/L EC)) were mixed in water at appropriate formulated product rates to achieve the desired rates based on a unit area of application (hectare) to achieve the desired rates as shown. Treatments were rate at 19 to 58 days after application (DAA) as compared to the untreated control plants. Visual weed control was scored on a scale of 0 to 100 percent where 0 corresponds to no injury and 100 corresponds to complete kill. […]

The test system of a further assay is ECHSS. The description is as above. It counts as in vivo, multiple Echinochloa species. The following applies: foliar, field trial Italy. The method, then:
as §1, §2

A further assay relates to LEFCH. Nature of the assay: Example I postemergence foliar-applied, greenhouse, direct seeded rice weeds. It counts as in vivo, Leptochloa chinensis (L.) Nees. The text has this: Seeds or nutlets of the desired test plant species were planted in a soil matrix prepared by mixing a loam or sandy loam soil (e.g., 28.6 percent silt, 18.8 percent clay, and 52.6 percent sand, with a pH of about 5.8 and an organic matter content of about 1.8 percent) and calcareous grit in an 80 to 20 ratio. The soil matrix was contained in plastic pots with a volume of 1 quart and a surface area of 83.6 square centimeters (cm^2). When required to ensure good germination and healthy plants, a fungicide treatment and/or other chemical or physical treatment was applied. The plants were grown for 8-22 days in a greenhouse with an approximate 14 hr. photoperiod which was maintained at about 29° C. during the day and 26° C. during the night. Nutrients (Peters Excel® 15-5-15 5-Ca 2-Mg and iron chelate) were applied in the irrigation solution as needed and water was added on a regular basis. Supplemental lighting was provided with overhead metal halide 1000-Watt lamps as necessary. The plants were employed for testing when they reached the first through fourth true leaf stage.
Treatments consisted of the acid or esters of 4-amino-3-chloro-5-fluoro-6-(4-chloro-2-fluoro-3-methoxy-phenyl)pyridine-2-carboxylic acid (Compound A), each formulated as an SC (suspension concentrate), and various herbicidal components alone and in combination.
Other herbicidal components were applied on an acid equivalent (ae) or active ingredient (ai) basis and included acetyl coA carboxylase (ACCase)-inhibiting herbicides (cyclohexanedione and aryloxyphenoxypropionate chemical classes) cyhalofop-butyl formulated as Clincher® SF (285 gr ai/L EC), diclofop-methyl formulated as Hoelon® 3EC, fenoxaprop-p-ethyl+isoxadifen-ethyl formulated as RiceStar® HT (0.58 lb./gal EC), fenoxaprop-p-ethyl+mefenpyr diethyl formulated as Puma® IEC, metamifop formulated as Metamifop EC, haloxyfop-methyl formulated as Gallant Super®, fluazifop-p-butyl formulated as Fusilade® DX, quizalofop-p-ethyl formulated as Assure® II, profoxydim formulated as Aura® 20EC, clethodim applied as Intensity®, sethoxydim formulated as Poast®, and tralkoxydim formulated as Achieve®.
Treatment requirements were calculated based upon the rates being tested, the concentration of active ingredient or acid equivalent in the formulation, and a 12 mL application volume at a rate of 187 L/ha.
For treatments comprised of formulated compounds, measured amounts of compounds were placed individually in 25 mL glass vials and diluted in a volume of 1.25% (v/v) Agri-Dex® crop oil concentrated to obtain 12× stock solutions. […] Application solutions were prepared by adding an appropriate amount of each stock solution (e.g., 1 mL) and diluted to the appropriate final concentrations with the addition of 10 mL of an aqueous mixture of 1.25% (v/v) crop oil concentrate so that the final spray solutions contained 1.25+/−0.05% (v/v) crop oil concentrate.
All stock solutions and applications solutions were visually inspected for compound compatibility prior to application. Spray solutions were applied to the plant material with an overhead Mandel track sprayer equipped with a 8002E nozzles calibrated to deliver 187 L/ha over an application area of 0.503 m^2 at a spray height of 18 to 20 inches (46 to 50 cm) above average plant canopy height. Control plants were sprayed in the same manner with the solvent blank.
The treated plants and control plants were placed in a greenhouse as described above and watered by sub-irrigation to prevent wash-off of the test compounds. After approximately 3 weeks, the condition of the test plants as compared with that of the untreated plants was determined visually and scored on a scale of 0 to 100 percent where 0 corresponds to no injury or growth inhibition and 100 corresponds to complete kill. […]

For a further assay, the system named is IPOHE. Kind of assay: Example V (second) postemergence foliar-applied ternary mixtures, greenhouse, direct seeded rice weeds. It counts as in vivo, Ipomoea hederacea Jacq. The method, then: The treated plants and control plants were placed in a greenhouse as described above and watered by sub-irrigation to prevent wash-off of the test compounds. After approximately 3 weeks, the condition of the test plants as compared with that of the untreated plants was determined visually and scored on a scale of 0 to 100 percent where 0 corresponds to no injury or growth inhibition and 100 corresponds to complete kill.
Colby's equation was used to determine the herbicidal effects expected from the mixtures (Colby, S. R. 1967. Calculation of the synergistic and antagonistic response of herbicide combinations. Weeds 15:20-22.).
The following equation was used to calculate the expected activity of mixtures containing three active ingredients, A, B, and C: Expected=A+B+C−((A×B+A×C+B×C)/100)+(A×B×C/10000)

With `COc1c(Cl)ccc(-c2nc(C(=O)OCc3ccccc3)c(Cl)c(N)c2F)c1F` [Compound A Benzyl Ester, benzyl ester of 4-amino-3-chloro-5-fluoro-6-(4-chloro-2-fluoro-3-methoxy-phenyl)pyridine-2-carboxylic acid], the “Visual Weed Control (%) - 19 DAA FIMMI Obs” value in the assay on FIMMI (24 gae/ha) worked out at 39%. In addition, the “Visual Weed Control (%) - 55-58 DAA ECHSS Obs” value in the assay on ECHSS (24 gae/ha) is reported as 40%. For the same compound, the “Visual Weed Control (%) - 20 DAA LEFCH Obs” value in the assay on LEFCH (4.38 gae/ha) was 0%; in the assay on LEFCH (8.75 gae/ha), 10%; with LEFCH (17.5 gae/ha), 25%. Further, the figures for the “Visual Weed Control (%) - 22 DAA LEFCH Obs” value in the assay with LEFCH (8 gae/ha) and in the assay with LEFCH (16 gae/ha) were 15% and 50%, respectively. For the same compound, the “Visual Weed Control (%) - 21 DAA IPOHE Obs” value in the assay with IPOHE (2.19 gae/ha, upper sub-table) amounted to 30%; in the assay on IPOHE (4.38 gae/ha, upper sub-table), 38%; in the assay on IPOHE (8 ae/ha) it was 20%; with IPOHE (8 gae/ha) it was 10%; in the assay on IPOHE (8 gae/ha, lower sub-table) it was 15%; in the assay on IPOHE (16 gae/ha), 30%. Further, the “Visual Weed Control (%) - 21 DAA IPOHE Obs” value in the assay on IPOHE (16 gae/ha, lower sub-table) was 33%.

For `CCCCOC(=O)[C@@H](C)Oc1ccc(Oc2ccc(C#N)cc2F)cc1` [Cyhalofop-butyl, butyl(2R)-2-[4-(4-cyano-2-fluorophenoxy)phenoxy]propanoate, reference compound], the “Visual Weed Control (%) - 19 DAA FIMMI Obs” value with FIMMI (190 gai/ha) was 16%. The “Visual Weed Control (%) - 55-58 DAA ECHSS Obs” value with ECHSS (300 gai/ha) is given as 37%. Also, the “Visual Weed Control (%) - 21 DAA IPOHE Obs” value with IPOHE (17.5 gai/ha) worked out at 0%; in the assay on IPOHE (35 gai/ha) it was 0%; with IPOHE (35 gai/ha, lower sub-table) it was 0%; in the assay with IPOHE (35 gai/ha, upper sub-table) it was 0%.

For the compound `CCC/C(=N\OCC(C)Oc1ccc(Cl)cc1)C1=C(O)CC(C2CCCSC2)CC1=O` (stereo not shown) [Profoxydim, 2-[1-[[2-(4-chlorophenoxy)propoxy]imino]butyl]-3-hydroxy-5-(tetrahydro-2H-thiopyran-3-yl)-2-cyclohexen-1-one, reference compound], the entries for the “Visual Weed Control (%) - 20 DAA LEFCH Obs” value in the assay on LEFCH (12.5 gai/ha) and with LEFCH (25 gai/ha) were 0% and 40%, respectively.
